Data reported in article PMC11073699, “Odorant receptors for floral- and plant-derived volatiles in the yellow fever mosquito, Aedes aegypti (Diptera: Culicidae)” (PLOS ONE, 2024).

target: T1, AaegOR6 (Aedes aegypti, UniProt A0A1S4G757); assay: Two-electrode voltage clamp of Xenopus laevis oocytes expressing AaegOR6/Orco (blends, unitary compounds, concentration-response); type: cell-based; details: Indoles 2 unitary compounds; oocyte 1
T1 sequence (A0A1S4G757 1-398): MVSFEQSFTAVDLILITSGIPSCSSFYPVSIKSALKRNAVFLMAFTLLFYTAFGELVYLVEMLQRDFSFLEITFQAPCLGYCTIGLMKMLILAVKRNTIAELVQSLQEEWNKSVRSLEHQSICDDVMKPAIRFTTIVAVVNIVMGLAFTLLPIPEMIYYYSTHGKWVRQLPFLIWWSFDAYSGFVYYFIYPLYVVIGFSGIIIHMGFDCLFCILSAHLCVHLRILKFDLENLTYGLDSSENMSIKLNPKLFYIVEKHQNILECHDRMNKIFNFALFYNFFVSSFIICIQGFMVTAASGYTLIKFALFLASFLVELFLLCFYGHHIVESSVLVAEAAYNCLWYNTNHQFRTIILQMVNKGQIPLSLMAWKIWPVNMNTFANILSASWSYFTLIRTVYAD
T1 sequence (Q178U6 1-478 partner): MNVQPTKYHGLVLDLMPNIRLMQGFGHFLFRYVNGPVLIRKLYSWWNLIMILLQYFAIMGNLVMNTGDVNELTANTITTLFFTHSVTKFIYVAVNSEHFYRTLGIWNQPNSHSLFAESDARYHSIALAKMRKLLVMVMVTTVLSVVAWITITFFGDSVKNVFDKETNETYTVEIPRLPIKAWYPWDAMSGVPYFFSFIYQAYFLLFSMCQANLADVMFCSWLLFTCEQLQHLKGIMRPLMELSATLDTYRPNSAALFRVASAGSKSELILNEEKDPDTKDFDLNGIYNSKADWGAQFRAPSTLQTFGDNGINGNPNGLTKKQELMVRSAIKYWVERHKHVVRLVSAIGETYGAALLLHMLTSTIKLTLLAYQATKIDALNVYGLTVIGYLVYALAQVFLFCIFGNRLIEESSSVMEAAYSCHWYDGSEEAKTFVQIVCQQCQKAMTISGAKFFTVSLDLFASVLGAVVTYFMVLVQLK
Text: (§1) The coding regions of ten AaegOR genes of interest (S3 File) and AaegOrco were synthesized by Twist Bioscience (San Francisco, CA, USA) and cloned into the pENTR plasmid. The Gateway LR directional cloning system (Invitrogen Corp., Carlsbad, CA, USA) was utilized to subclone AaegOR coding regions into the pSP64t-RFA oocyte expression plasmid. Plasmids were purified using the GeneJet Plasmid Miniprep Kit (ThermoFisher Scientific, Waltham, MA, USA). Purified plasmids were sequenced in both directions to confirm coding regions.
(§2) Chemical compounds (S6 File) used in the deorphanization of AaegORs were purchased from Acros Organics (Morris, NJ, USA), Alfa Aesar (Ward Hill, MA, USA), and ThermoFisher Scientific (Waltham, MA, USA) at the highest purity available. Compounds were stored as 1M stocks in 100% DMSO. Serial dilutions of each compound were prepared in 10% DMSO and blended by chemical class.
(§3) pSP64t-RFA: AaegOR clones were linearized using Xbal, and cRNAs were synthesized using the mMESSAGE mMACHINE ® SP6 kit (Life Technologies, Carlsbad, CA, USA). Xenopus laevis stage V-VII oocytes purchased from Xenopus1 (Dexter, MI, USA) were stored at 18°C in Incubation medium (ND96 96 with 5% dialyzed horse serum, 50μg/mL gentamycin, 100μg/mL streptomycin, 100μg/mL penicillin, and 550μg/mL sodium pyruvate). 30nL of cRNA was injected into multiple oocytes using a microinjection syringe pump (World Precision Instruments, Sarasota, FL, USA) maintained at 18°C for 48–72 hrs. Odorant blends were perfused across individual oocytes for 10–15 seconds, held at a resting membrane potential of -80 mV using an OC-725C oocyte clamp (Warner Instruments, LLC, Hamden, CT, USA). Induced currents were measured indirectly using the two-electrode voltage clamp technique (TEVC). Following each stimulus, currents were allowed to return to baseline before further stimulation. Data was captured using the Digidata 1550 B digitizer and PClamp10 software (Molecular Devices, San Jose, CA, USA). Concentration-response curves were generated by perfusing unitary odorants over oocytes at increasing concentrations from [10^-3M] to [10^-9M]. Data were analyzed using GraphPad Prism 8 (GraphPad Software Inc., La Jolla, CA, USA). At least two biological replicates were conducted at each concentration and for each compound. Data for at least seven oocytes responding to each compound was analyzed (S7 File).

Which “Raw data (Responses in nA) Oocyte 1” value does the source give for Oc1cccc2[nH]ccc12 [4-Hydroxyindole] here?
Its value is 0.0 nA.

same assay, conditions: Indoles 2 unitary compounds; oocyte 2

With Oc1cccc2[nH]ccc12 [4-Hydroxyindole] as the molecule, how does the “Raw data (Responses in nA) Oocyte 2” value read?
Its value is 0.0 nA.

same assay, conditions: Indoles 2 unitary compounds; oocyte 3

Which “Raw data (Responses in nA) Oocyte 3” value does the source give for Oc1cccc2[nH]ccc12 [4-Hydroxyindole] here?
The value was 5.0 nA.

same assay, conditions: Indoles 2 unitary compounds; oocyte 4

How did the “Raw data (Responses in nA) Oocyte 4” value turn out when Oc1cccc2[nH]ccc12 [4-Hydroxyindole] was run?
Its value is 0.0 nA.

same assay, conditions: Indoles 2 unitary compounds; oocyte 5

How did the “Raw data (Responses in nA) Oocyte 5” value turn out when Oc1cccc2[nH]ccc12 [4-Hydroxyindole] was run?
The value was 0.0 nA.

same assay, conditions: Indoles 2 unitary compounds; oocyte 6

Which “Raw data (Responses in nA) Oocyte 6” value does the source give for Oc1cccc2[nH]ccc12 [4-Hydroxyindole] here?
The value was 0.0 nA.

same assay, conditions: Indoles 2 unitary compounds; oocyte 7

With Oc1cccc2[nH]ccc12 [4-Hydroxyindole] as the molecule, how does the “Raw data (Responses in nA) Oocyte 7” value read?
Its value is 0.0 nA.

same assay, conditions: Indoles 2 unitary compounds; oocyte 8

Oc1cccc2[nH]ccc12 [4-Hydroxyindole] was tested. Which “Raw data (Responses in nA) Oocyte 8” value did it give?
Its value is 0.0 nA.

target: T2, AaegOR71 (Aedes aegypti, UniProt A0A3S7SHD4); assay: Two-electrode voltage clamp of Xenopus laevis oocytes expressing AaegOR71/Orco (blends, unitary compounds, concentration-response); type: cell-based; details: Indoles 2 unitary compounds; oocyte 1
T2 sequence (A0A3S7SHD4 1-415): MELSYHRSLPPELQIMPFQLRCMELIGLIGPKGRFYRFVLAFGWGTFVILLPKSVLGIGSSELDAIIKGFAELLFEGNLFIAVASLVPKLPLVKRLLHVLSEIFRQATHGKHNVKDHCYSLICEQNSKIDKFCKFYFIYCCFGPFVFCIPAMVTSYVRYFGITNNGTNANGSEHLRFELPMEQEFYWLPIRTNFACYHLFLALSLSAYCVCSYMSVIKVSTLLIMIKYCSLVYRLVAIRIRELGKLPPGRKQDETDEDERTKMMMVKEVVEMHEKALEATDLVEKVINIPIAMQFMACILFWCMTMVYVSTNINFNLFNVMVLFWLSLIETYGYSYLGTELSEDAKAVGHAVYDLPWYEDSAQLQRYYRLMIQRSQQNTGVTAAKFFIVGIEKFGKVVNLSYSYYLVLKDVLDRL
T2 sequence (Q178U6 1-478 partner): T1 sequence (Q178U6 1-478 partner)
Text: as §1, §2, §3

For Oc1cccc2[nH]ccc12 [4-Hydroxyindole], which “Raw Data (Response in nA) Oocyte 1” value is on record?
The value was 20 nA.

same assay, conditions: Indoles 2 unitary compounds; oocyte 2

For Oc1cccc2[nH]ccc12 [4-Hydroxyindole], which “Raw Data (Response in nA) Oocyte 2” value is on record?
The value was 30 nA.

same assay, conditions: Indoles 2 unitary compounds; oocyte 3

With Oc1cccc2[nH]ccc12 [4-Hydroxyindole] as the molecule, how does the “Raw Data (Response in nA) Oocyte 3” value read?
The value was 0 nA.

same assay, conditions: Indoles 2 unitary compounds; oocyte 4

How did the “Raw Data (Response in nA) Oocyte 4” value turn out when Oc1cccc2[nH]ccc12 [4-Hydroxyindole] was run?
Its value is 30 nA.

same assay, conditions: Indoles 2 unitary compounds; oocyte 5

Oc1cccc2[nH]ccc12 [4-Hydroxyindole] was tested. Which “Raw Data (Response in nA) Oocyte 5” value did it give?
Its value is 0 nA.

same assay, conditions: Indoles 2 unitary compounds; oocyte 6

For Oc1cccc2[nH]ccc12 [4-Hydroxyindole], which “Raw Data (Response in nA) Oocyte 6” value is on record?
The value was 30 nA.

same assay, conditions: Indoles 2 unitary compounds; oocyte 7

With Oc1cccc2[nH]ccc12 [4-Hydroxyindole] as the molecule, how does the “Raw Data (Response in nA) Oocyte 7” value read?
The value was 30 nA.

same assay, conditions: Indoles 2 unitary compounds; oocyte 8

Oc1cccc2[nH]ccc12 [4-Hydroxyindole] was tested. Which “Raw Data (Response in nA) Oocyte 8” value did it give?
Its value is 10 nA.
